Experimental data as given in publication PMC5654968 (NPJ Systems Biology and Applications, 2017).
Where two headings read alike, the source gives them in different places.

Type: in vivo, rat
Description: Distilled water and saline were administered as vehicle to rats in each control group. […] Plasma cytokine levels were measured by ELISA or multiplex immunoassay; common metabolites and lipid mediators were analyzed by GC-MS/MS and LC-MS/MS, respectively.
Pathway maps of lipid mediators were created by using CellDesigner 4.4 software (http://www.celldesigner.org). We evaluated the effects of the treatments on specific lipid mediators and categorized them according to COX, CYP and LOX pathways by Fisher’s exact test. The proinflammatory and anti-inflammatory indices were analyzed as described by Tam et al. with modification.[22]

[1] = first value of an incomplete line, time (2h or 4h) not assignable
[2] = PM/P (polyI:C+maoto vs polyI:C), 2h
[3] = PM/P (polyI:C+maoto vs polyI:C), 4h

Compound	log2FC of plasma level	log2FC of plasma level [1]	log2FC of plasma level (M/C (maoto vs control), 2h)	log2FC of plasma level (M/C (maoto vs control), 4h)	log2FC of plasma level (P/C (polyI:C vs control), 2h)	log2FC of plasma level (P/C (polyI:C vs control), 4h)	log2FC of plasma level [2]	log2FC of plasma level [3]
CCCCC[C@H](O)/C=C/[C@@H]1[C@@H](C/C=C\CCCCCC(=O)O)[C@@H](O)C[C@H]1O [1a1b-dihomo-PGF2α]	1.56	0.80						
CC/C=C\C/C=C\C/C=C\C/C=C\C/C=C\C=C\C(O)CCC(=O)O (stereo not drawn) [4-HDoHE]			0.12	-0.59	-0.04	0.33	0.03	-0.79
CCCCC/C=C\C/C=C\C/C=C\CC(O)C1CCCC(=O)O1 (stereo not drawn) [5,6-DHET-lactone]	-0.87	0.53						
CCCCC/C=C\C/C=C\C/C=C\CC(O)C(O)CCCC(=O)O (stereo not drawn) [5,6-DHET]			0.42	-0.54	-0.14	0.11	0.23	-0.71
CC/C=C\C/C=C\C/C=C\C/C=C\CC(O)C(O)CCCC(=O)O (stereo not drawn) [5,6-DiHETE]			-0.03	-0.23	-0.19	0.03	-0.44	-0.44
CCCCC/C=C\C/C=C\C/C=C\CC1OC1CCCC(=O)O (stereo not drawn) [5,6-EET]			-0.22	-0.49	-0.26	0.11	0.12	-0.56
CC/C=C\C/C=C\C/C=C\C/C=C\C=C\C(O)CCCC(=O)O (stereo not drawn) [5-HEPE]			0.39	-0.35	0.16	0.04	0.10	-0.47
CCCCC/C=C\C/C=C\C/C=C\C=C\[C@@H](O)CCCC(=O)O [5-HETE]			-0.06	-0.47	-0.07	0.39	0.01	-0.73
CCCCCC=CCC=CCC=CC=CC(=O)CCCC(=O)O [5-KETE]			-0.29	-0.45	-0.18	0.36	-0.02	-0.67
CCCCC/C=C\C[C@@H]1[C@H](/C=C/C(O)CCCC(=O)O)[C@@H](O)C[C@H]1O (stereo partly drawn) [5-iPF2α-VI]			-0.16	-0.25	-0.73	0.38	0.75	-0.41
CCCCCC(=O)CCC1C(O)CC(O)C1CC(=O)CCCCC(=O)O (stereo not drawn) [6,15-diketo-13,14-dihydro-PGF1α]	-0.52	1.63						
CCCCC[C@H](O)/C=C/[C@@H]1[C@@H](CC(=O)CCCCC(=O)O)[C@@H](O)C[C@H]1O [6-keto-PGF1α]			0.16	0.08	1.21	0.67	-0.35	0.01
CC/C=C\C/C=C\C/C=C\C/C=C\C=C\C(O)C/C=C\CCC(=O)O (stereo not drawn) [7-HDoHE]			0.11	-0.26	0.02	0.23	-0.17	-0.39
CCCCC/C=C\C/C=C\CC(O)C(O)C/C=C\CCCC(=O)O (stereo not drawn) [8,9-DHET]			0.82	-0.02	0.07	0.42	0.16	-0.59
CCCCC/C=C\C/C=C\CC1OC1C/C=C\CCCC(=O)O (stereo not drawn) [8,9-EET]			-0.23	-0.33	-0.32	0.06	0.27	-0.66
CC/C=C\C/C=C\C/C=C\C/C=C\CC(O)/C=C/C=C\CCC(=O)O (stereo not drawn) [8-HDoHE]			0.09	-0.20	-0.07	0.23	-0.15	-0.44
CCCCC/C=C\C/C=C\C=C\C(O)C/C=C\CCCC(=O)O (stereo not drawn) [8-HETE]			0.09	-0.40	-0.12	0.39	0.05	-0.62

Compound	log2FC of plasma level	log2FC of plasma level [1]	log2FC of plasma level (M/C (maoto vs control), 2h)	log2FC of plasma level (M/C (maoto vs control), 4h)	log2FC of plasma level (P/C (polyI:C vs control), 2h)	log2FC of plasma level (P/C (polyI:C vs control), 4h)	log2FC of plasma level [2]	log2FC of plasma level [3]
CCCCCC(=O)/C=C/[C@@H]1[C@H](C/C=C\CCCC(=O)O)[C@@H](O)C[C@H]1O [8-iso-15-keto-PGF2α]			-0.41	-0.68	-0.16	1.04	-0.14	-0.99
CCCCC[C@H](O)/C=C/[C@H]1[C@H](O)CC(=O)[C@H]1C/C=C\CCCC(=O)O [8-iso-PGE2]			-0.45	-0.43	-0.13	0.77	-0.23	-0.98
CCCCC/C=C\CC(O)C(O)CCCCCCCC(=O)O (stereo not drawn) [9,10-DiHOME]			0.50	-0.34	0.31	-0.14	0.19	-0.10
CCCCC/C=C\CC1OC1CCCCCCCC(=O)O (stereo not drawn) [9,10-EpOME]			0.04	-0.80	0.10	0.36	-0.30	-1.14
CCCCC/C=C\C/C=C\CC(O)/C=C/C=C\CCCC(=O)O (stereo not drawn) [9-HETE]			0.09	-0.42	-0.22	0.63	0.30	-1.09
CCCCC/C=C\C=C\C(O)CCCCCCCC(=O)O (stereo not drawn) [9-HODE]			-0.05	-0.53	-0.02	0.50	-0.13	-0.97
CC/C=C\C/C=C\C=C\C(O)CCCCCCCC(=O)O (stereo not drawn) [9-HOTrE]			0.03	-0.77	0.04	0.61	-0.05	-1.19
CCCCC/C=C\C=C\[C@H](CCCCCCCC(=O)O)OO [9-HpODE, 9S-hydroperoxy-10E,12Z-octadecadienoic acid]			2.26	-2.31	0.65	0.35	-0.77	-1.51
CCCCC/C=C/C=C/C(=O)CCCCCCCC(=O)O [9-KODE]			-0.09	-0.95	-0.17	0.97	-0.03	-1.16
CC/C=C\C/C=C\C/C=C\C=C\C(O)C/C=C\C/C=C\CCC(=O)O (stereo not drawn) [10-HDoHE]			0.15	-0.47	0.01	0.14	-0.04	-0.60
CCCCC/C=C\CC(O)C(O)C/C=C\C/C=C\CCCC(=O)O (stereo not drawn) [11,12-DHET]			0.90	0.13	-0.15	0.23	0.19	-0.31
CCCCC/C=C\C[C@H]1O[C@H]1C/C=C\C/C=C\CCCC(=O)O [11,12-EET]			-0.50	-0.33	-0.22	0.37	-0.13	-0.59
CC/C=C\C/C=C\C/C=C\CC(O)/C=C/C=C\C/C=C\CCC(=O)O (stereo not drawn) [11-HDoHE]			0.35	-0.42	0.05	0.13	0.03	-0.58
CCCCC/C=C\C=C\C(O)C/C=C\C/C=C\CCCC(=O)O (stereo not drawn) [11-HETE]			0.15	-0.41	0.23	0.38	0.04	-0.66
CCCCCC(O)C(O)C/C=C\CCCCCCCC(=O)O (stereo not drawn) [12,13-DiHOME]			0.57	-0.31	0.25	0.12	0.26	-0.28
CC/C=C\C/C=C\CC(O)/C=C/C=C\C/C=C\CCCC(=O)O (stereo not drawn) [12-HEPE]			1.09	-0.37	-0.06	0.02	0.67	-0.27
